Source: ChEMBL document CHEMBL3872204, “Synthesis and immunopotentiating activity of novel isoxazoline functionalized coumarins” (Eur J Med Chem, 2016)
The source made the active and inactive calls. The rule behind the calls is not given here.

How the values were obtained:
[1] = tested on: Mus musculus; assay: Immunopotentiating activity in sheep RBC-immunized BALB/c mouse assessed as increase in isolated splenic […] proliferation administered orally for 14 days followed by incubation of isolated splenocytes with ConA for 72 hrs by MTT assay; type: functional
[2] = tested on: Mus musculus; assay: Immunopotentiating activity in sheep RBC-immunized BALB/c mouse assessed as CD8-positive splenic T-cells at 0.01 mg/kg, po for 14 days by flow cytometry (reference value: 13.3 +/- 0.34%); type: functional
[3] = tested on: Mus musculus; assay: Immunopotentiating activity in sheep RBC-immunized BALB/c mouse assessed as increase in macrophage production by measuring increase in NO production administered orally for 14 days followed by incubation with LPS for 48 hrs by Griess assay; type: functional
[4] = tested on: Mus musculus; assay: Immunopotentiating activity in sheep RBC-immunized BALB/c mouse assessed as increase in delayed-type hypersensitivity response by measuring left hind foot pad thickness at 0.001 mg/kg, po qd administered 2 hrs post immunization for 7 days measured 24 to 48 hrs post SRBC challenge by spheromicrometer method; type: functional, organism-based
[5] = tested on: Mus musculus; assay: Immunopotentiating activity in sheep RBC-immunized BALB/c mouse assessed as increase in isolated splenic T-cell proliferation administered orally for 14 days followed by incubation of isolated splenocytes with ConA for 72 hrs by MTT assay; type: functional
[6] = tested on: Mus musculus; assay: Immunopotentiating activity in sheep RBC-immunized BALB/c mouse assessed as B-cell activation by measuring IgG antibody titer in serum at 0.01 mg/kg, po for 14 days by hemagglutinination technique; type: functional, organism-based
[7] = tested on: Mus musculus; assay: Immunopotentiating activity in sheep RBC-immunized BALB/c mouse assessed as CD4-positive splenic T-cells at 0.001 mg/kg, po for 14 days by flow cytometry (reference value: 20.7 +/- 0.9%); type: functional
[8] = tested on: Mus musculus; assay: Immunopotentiating activity in sheep RBC-immunized BALB/c mouse assessed as CD8-positive T-cell content in spleen at 0.1 mg/kg, po for 14 days by flow cytometry (reference value: 1.47 +/- 0.04 10^7No_unit); type: functional
[9] = tested on: Mus musculus; assay: Immunopotentiating activity in sheep RBC-immunized BALB/c mouse assessed as increase in interferon-gamma production in splenocytes administered orally for 14 days followed by incubation with ConA for 48 hrs by ELISA; type: functional, cell-based
[10] = tested on: Mus musculus; assay: Immunopotentiating activity in sheep RBC-immunized BALB/c mouse assessed as B-cell activation by measuring IgM antibody titer in serum at 0.1 mg/kg, po for 14 days measured on day 7 post dose by hemagglutinination technique; type: functional, organism-based
[11] = tested on: Mus musculus; assay: Immunopotentiating activity in sheep RBC-immunized BALB/c mouse assessed as CD8-positive splenic T-cells at 0.1 mg/kg, po for 14 days by flow cytometry (reference value: 13.3 +/- 0.34%); type: functional
[12] = tested on: Mus musculus; assay: Immunopotentiating activity in sheep RBC-immunized BALB/c mouse assessed as increase in isolated splenic T-cell proliferation administered orally for 14 days followed by incubation of isolated splenocytes with LPS for 72 hrs by MTT assay; type: functional
[13] = tested on: Splenic lymphocyte; assay: Immunopotentiating activity in splenic lymphocytes (unknown origin) assessed as effect on proliferation by measuring cell viability pretreated followed by incubation of lymphocytes with ConA for 48 hrs by MTT assay; type: functional, cell-based
[14] = tested on: Mus musculus; assay: Immunopotentiating activity in sheep RBC-immunized BALB/c mouse assessed as CD8-positive T-cell content in spleen at 0.001 mg/kg, po for 14 days by flow cytometry (reference value: 1.47 +/- 0.04 10^7No_unit); type: functional
[15] = tested on: Mus musculus; assay: Immunopotentiating activity in sheep RBC-immunized BALB/c mouse assessed as ratio of CD4-positive splenic T-cells to CD8-positive splenic T-cells at 0.1 mg/kg, po for 14 days by flow cytometry (RVB = 1.56 +/- 0.09); type: functional
[16] = tested on: Mus musculus; assay: Immunopotentiating activity in sheep RBC-immunized BALB/c mouse assessed as increase in isolated splenic B-cell proliferation administered orally for 14 days followed by incubation of isolated splenocytes with LPS for 72 hrs by MTT assay; type: functional
[17] = tested on: Splenic lymphocyte; assay: Immunopotentiating activity in splenic lymphocytes (unknown origin) assessed as effect on proliferation by measuring cell viability pretreated followed by incubation of lymphocytes with LPS for 48 hrs by MTT assay; type: functional, cell-based
[18] = tested on: Mus musculus; assay: Immunopotentiating activity in sheep RBC-immunized BALB/c mouse assessed as B-cell activation by measuring IgM antibody titer in serum at 0.01 mg/kg, po for 14 days measured on day 7 post dose by hemagglutinination technique; type: functional, organism-based
[19] = tested on: Mus musculus; assay: Immunopotentiating activity in sheep RBC-immunized BALB/c mouse assessed as CD4-positive T-cell content in spleen at 0.1 mg/kg, po for 14 days by flow cytometry (reference value: 2.7 +/- 0.12 10^7No_unit); type: functional
[20] = tested on: Mus musculus; assay: Immunopotentiating activity in sheep RBC-immunized BALB/c mouse assessed as CD4-positive T-cell content in spleen at 0.01 mg/kg, po for 14 days by flow cytometry (reference value: 2.7 +/- 0.12 10^7No_unit); type: functional
[21] = tested on: Mus musculus; assay: Immunopotentiating activity in sheep RBC-immunized BALB/c mouse assessed as B-cell activation by measuring IgM antibody titer in serum at 0.001 mg/kg, po for 14 days measured on day 7 post dose by hemagglutinination technique; type: functional, organism-based
[22] = tested on: Mus musculus; assay: Immunopotentiating activity in sheep RBC-immunized BALB/c mouse assessed as CD8-positive splenic T-cells at 0.001 mg/kg, po for 14 days by flow cytometry (reference value: 13.3 +/- 0.34%); type: functional
[23] = tested on: Mus musculus; assay: Immunopotentiating activity in sheep RBC-immunized BALB/c mouse assessed as B-cell activation by measuring IgG antibody titer in serum at 0.001 mg/kg, po for 14 days by hemagglutinination technique; type: functional, organism-based
[24] = tested on: Mus musculus; assay: Immunopotentiating activity in sheep RBC-immunized BALB/c mouse assessed as ratio of CD4-positive splenic T-cells to CD8-positive splenic T-cells at 0.001 mg/kg, po for 14 days by flow cytometry (RVB = 1.56 +/- 0.09); type: functional
[25] = tested on: Mus musculus; assay: Immunopotentiating activity in sheep RBC-immunized BALB/c mouse assessed as CD4-positive splenic T-cells at 0.01 mg/kg, po for 14 days by flow cytometry (reference value: 20.7 +/- 0.9%); type: functional
[26] = organism: Mus musculus; assay: Cytotoxicity in BALB/c mouse splenocytes at 100 ug/ml measured after 72 hrs by MTT assay; type: toxicity; settings: splenocyte
[27] = tested on: Mus musculus; assay: Immunopotentiating activity in sheep RBC-immunized BALB/c mouse assessed as CD4-positive splenic T-cells at 0.1 mg/kg, po for 14 days by flow cytometry (reference value: 20.7 +/- 0.9%); type: functional
[28] = tested on: Mus musculus; assay: Immunopotentiating activity in sheep RBC-immunized BALB/c mouse assessed as ratio of CD4-positive splenic T-cells to CD8-positive splenic T-cells at 0.01 mg/kg, po for 14 days by flow cytometry (RVB = 1.56 +/- 0.09); type: functional
[29] = tested on: Mus musculus; assay: Immunopotentiating activity in sheep RBC-immunized BALB/c mouse assessed as CD8-positive T-cell content in spleen at 0.01 mg/kg, po for 14 days by flow cytometry (reference value: 1.47 +/- 0.04 10^7No_unit); type: functional
[30] = tested on: Mus musculus; assay: Immunopotentiating activity in sheep RBC-immunized BALB/c mouse assessed as increase in IL2 production in splenocytes administered orally for 14 days followed by incubation with ConA for 48 hrs by ELISA; type: functional, cell-based
[31] = tested on: Mus musculus; assay: Immunopotentiating activity in sheep RBC-immunized BALB/c mouse assessed as increase in IL4 production in splenocytes administered orally for 14 days followed by incubation with ConA for 48 hrs by ELISA; type: functional, cell-based
[32] = tested on: Mus musculus; assay: Immunopotentiating activity in sheep RBC-immunized BALB/c mouse assessed as CD4-positive T-cell content in spleen at 0.001 mg/kg, po for 14 days by flow cytometry (reference value: 2.7 +/- 0.12 10^7No_unit); type: functional
[33] = tested on: Mus musculus; assay: Immunopotentiating activity in sheep RBC-immunized BALB/c mouse assessed as B-cell activation by measuring IgG antibody titer in serum at 0.1 mg/kg, po for 14 days by hemagglutinination technique; type: functional, organism-based

COc1ccc(C2=NOC(COc3ccc4ccc(=O)oc4c3)C2)cc1 (stereo not drawn)
Activity [1]: Dose-dependent effect
Activity [2]: 19.8%
Activity [3]: Dose-dependent effect
Activity [4]: Active
Activity [5]: Dose-dependent effect
Activity [6]: Active
Activity [7]: 30.3%
Activity [8]: 1.48 ×10⁷ No_unit
Activity [9]: Dose-dependent effect
Activity [10]: Active
Activity [11]: 21.6%
Activity [12]: Dose-dependent effect
Activity [13]: Dose-dependent effect
Activity [14]: 1.26 ×10⁷ No_unit
Ratio [15]: 1.86
Activity [16]: Dose-dependent effect
Activity [17]: Dose-dependent effect
Activity [18]: Active
Activity [19]: 1.85 ×10⁷ No_unit
Activity [20]: 1.61 ×10⁷ No_unit
Activity [21]: Active
Activity [22]: 16.4%
Activity [23]: Active
Ratio [24]: 1.32
Activity [25]: 34.2%
Activity [26]: Non-Toxic
Activity [27]: 40.2%
Ratio [28]: 1.72
Activity [29]: 1.35 ×10⁷ No_unit
Activity [30]: Dose-dependent effect
Activity [31]: Dose-dependent effect
Activity [32]: 1.23 ×10⁷ No_unit
Activity [33]: Active
